Results as given in patent US20250122219A1 (priority 2023, published 2025).
Like-named read-outs stand apart in the source and are kept apart here.

Experiments:
[1] = Cytotoxicity assay in MT-4 cells; assay type: cell-based; settings: human; uninfected MT-4 cells, 5 days incubation, Cell Titer Glo; read-out: MT4 CC50
Procedure, shortened: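 Viability read by Cell Titer Glo luminescence after 5 days at 37 °C. MT-4 cells, not infected, in complete RPMI (10% FBS), received compound dilution series. Base cytotoxicity set with […] puromycin.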

HIV-1 (IIIB) = assay: Antiviral assay in MT-4 cells; assay type: cell-based
Procedure, shortened: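 Read-out: CellTiter-Glo luminescence after 5 days at 37 °C, reflecting survival of MT-4 cells infected with HIV-1 IIIB (1:250 fresh stock dilution) versus mock-infected. Compounds serially diluted into RPMI with 10% FBS; AZT at 5 μM served as positive control.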

[2] = Human immunodeficiency virus 1, MT4, 120 h, HIV-1 IIIB in MT-4 cells, 5 days incubation, Cell Titer Glo, read-out: MT4 EC50
[3] = Human immunodeficiency virus 1, IIIB, MT4, 120 h, read-out: MT4 EC50 (nM)

Row | EC50 (HIV-1 (IIIB); [2]) [nM] | SMILES | CC50 at 5 days [1] [nM] | EC50 (HIV-1 (IIIB); [3]) [nM]
1 | 0.153 | CC1=NO[C@@]2(CC[C@H](C)N3C[C@H]2n2cc(C(=O)NCc4ccc(F)cc4F)c(=O)c(OC(=O)OCCC(C)C)c2C3=O)C1 [Example 150, (3′S,5S,7′R)-10′-((2,4-difluorobenzyl)carbamoyl)-3,3′-dimethyl-1′,11′-dioxo-1′,4′,5′,11′-tetrahydro-3′H,4H,7′H-spiro[isoxazole-5,6′-[2,7]methanopyrido[1,2-a][1,4]diazonin]-12′-yl isopentyl carbonate] | 16000 | 
2 | 2.17 | COC1=NO[C@@]2(CC[C@H](C)N3C[C@H]2n2cc(C(=O)NCc4ccc(F)cc4F)c(=O)c(OC(=O)OCC(C)C)c2C3=O)C1 [Example 149, (3′S,5S,7′R)-10′-((2,4-difluorobenzyl)carbamoyl)-3-methoxy-3′-methyl-1′,11′-dioxo-1′,4′,5′,11′-tetrahydro-3′H,4H,7′H-spiro[isoxazole-5,6′-[2,7]methanopyrido[1,2-a][1,4]diazonin]-12′-yl isobutyl carbonate] | 15900 | 
3 | 2.4 | CCCOC(=O)OCOc1c2n(cc(C(=O)NCc3ccc(F)cc3F)c1=O)[C@@H]1CN(C2=O)[C@@H](C)CC[C@]12CC(C)=NO2 [Example 174, (((3′S,5S,7′R)-10′-((2,4-difluorobenzyl)carbamoyl)-3,3′-dimethyl-1′,11′-dioxo-1′,4′,5′,11′-tetrahydro-3′H,4H,7′H-spiro[isoxazole-5,6′-[2,7]methanopyrido[1,2-a][1,4]diazonin]-12′-yl)oxy)methyl propyl carbonate] | 18100 | 
4 | 0.898 | CCOC(=O)Oc1c2n(cc(C(=O)NCc3ccc(F)cc3F)c1=O)[C@@H]1CN(C2=O)[C@@H](C)CC[C@]12CC(OC)=NO2 [Example 124, (3′S,5S,7′R)-10′-((2,4-difluorobenzyl)carbamoyl)-3-methoxy-3′-methyl-1′,11′-dioxo-1′,4′,5′,11′-tetrahydro-3′H,4H,7′H-spiro[isoxazole-5,6′-[2,7]methanopyrido[1,2-a][1,4]diazonin]-12′-yl ethyl carbonate] | 17100 | 
5 | 2.04 | CC1=NO[C@@]2(CC[C@H](C)N3C[C@H]2n2cc(C(=O)NCc4ccc(F)cc4F)c(=O)c(OCOC(=O)CCCCCCC(C)C)c2C3=O)C1 [Example 120, (((3′S,5S,7′R)-10′-((2,4-difluorobenzyl)carbamoyl)-3,3′-dimethyl-1′,11′-dioxo-1′,4′,5′,11′-tetrahydro-3′H,4H,7′H-spiro[isoxazole-5,6′-[2,7]methanopyrido[1,2-a][1,4]diazonin]-12′-yl)oxy)methyl 8-methylnonanoate] | 42300 | 
6 | 2.19 | CC1=NO[C@@]2(CC[C@H](C)N3C[C@H]2n2cc(C(=O)NCc4ccc(F)cc4F)c(=O)c(OCOC(=O)CCCC(C)C)c2C3=O)C1 [Example 118] | 18200 | 
7 | 2.47 | CC1=NO[C@@]2(CC[C@H](C)N3C[C@H]2n2cc(C(=O)NCc4ccc(F)cc4F)c(=O)c(OCOC(=O)OCCCCC(C)C)c2C3=O)C1 [Example 205, (((3′S,5S,7′R)-10′-((2,4-difluorobenzyl)carbamoyl)-3,3′-dimethyl-1′,11′-dioxo-1′,4′,5′,11′-tetrahydro-3′H,4H,7′H-spiro[isoxazole-5,6′-[2,7]methanopyrido[1,2-a][1,4]diazonin]-12′-yl)oxy)methyl (5-methylhexyl) carbonate] | 23100 | 
8 | 0.995 | CCCCCCCCCCOC(=O)Oc1c2n(cc(C(=O)NCc3ccc(F)cc3F)c1=O)[C@@H]1CN(C2=O)[C@@H](C)CC[C@]12CC(C)=NO2 [Example 139, decyl ((3′S,5S,7′R)-10′-((2,4-difluorobenzyl)carbamoyl)-3,3′-dimethyl-1′,11′-dioxo-1′,4′,5′,11′-tetrahydro-3′H,4H,7′H-spiro[isoxazole-5,6′-[2,7]methanopyrido[1,2-a][1,4]diazonin]-12′-yl) carbonate] | 13200 | 

Further lines, the molecule ahead of its results:

Row | SMILES | EC50 (HIV-1 (IIIB); [2]) [nM] | CC50 at 5 days [1] [nM] | EC50 (HIV-1 (IIIB); [3]) [nM]
9 | CC1=NO[C@@]2(CC[C@H](C)N3C[C@H]2n2cc(C(=O)NCc4ccc(F)cc4F)c(=O)c(OCOC(=O)CCCCCC(C)C)c2C3=O)C1 [Example 117, (((3′S,5S,7′R)-10′-((2,4-difluorobenzyl)carbamoyl)-3,3′-dimethyl-1′,11′-dioxo-1′,4′,5′,11′-tetrahydro-3′H,4H,7′H-spiro[isoxazole-5,6′-[2,7]methanopyrido[1,2-a][1,4]diazonin]-12′-yl)oxy)methyl 7-methyloctanoate] | 2.84 | ≥ 50000 | 
10 | CCCCCCC(=O)Oc1c2n(cc(C(=O)NCc3ccc(F)cc3F)c1=O)[C@@H]1CN(C2=O)[C@@H](C)CC[C@]12CC(OC)=NO2 [Example 38, (3′S,5S,7′R)-10′-((2,4-difluorobenzyl)carbamoyl)-3-methoxy-3′-methyl-1′,11′-dioxo-1′,4′,5′,11′-tetrahydro-3′H,4H,7′H-spiro[isoxazole-5,6′-[2,7]methanopyrido[1,2-a][1,4]diazonin]-12′-yl heptanoate] | 0.331 | 25700 | 
11 | CCCCCC(=O)OCOc1c2n(cc(C(=O)NCc3ccc(F)cc3F)c1=O)[C@@H]1CN(C2=O)[C@@H](C)CC[C@]12CC(C)=NO2 [Example 92, (((3′S,5S,7′R)-10′-((2,4-difluorobenzyl)carbamoyl)-3,3′-dimethyl-1′,11′-dioxo-1′,4′,5′,11′-tetrahydro-3′H,4H,7′H-spiro[isoxazole-5,6′-[2,7]methanopyrido[1,2-a][1,4]diazonin]-12′-yl)oxy)methyl hexanoate] | 2.14 | 21500 | 
12 | CC1=NO[C@@]2(CC[C@H](C)N3C[C@H]2n2cc(C(=O)NCc4ccc(F)cc4F)c(=O)c(OC(=O)/C=C/C(=O)O)c2C3=O)C1 [Example 75, (E)-4-(((3′S,5S,7′R)-10′-((2,4-difluorobenzyl)carbamoyl)-3,3′-dimethyl-1′,11′-dioxo-1′,4′,5′,11′-tetrahydro-3′H,4H,7′H-spiro[isoxazole-5,6′-[2,7]methanopyrido[1,2-a][1,4]diazonin]-12′-yl)oxy)-4-oxobut-2-enoic acid] |  | 16100 | 1.6
13 | CCCCCCCCC(=O)Oc1c2n(cc(C(=O)NCc3ccc(F)cc3F)c1=O)[C@@H]1CN(C2=O)[C@@H](C)CC[C@]12CC(OC)=NO2 [Example 42, (3′S,5S,7′R)-10′-((2,4-difluorobenzyl)carbamoyl)-3-methoxy-3′-methyl-1′,11′-dioxo-1′,4′,5′,11′-tetrahydro-3′H,4H,7′H-spiro[isoxazole-5,6′-[2,7]methanopyrido[1,2-a][1,4]diazonin]-12′-yl nonanoate] | 1.94 | 40600 | 
14 | CCCCCCCCCCCC(=O)OCOc1c2n(cc(C(=O)NCc3ccc(F)cc3F)c1=O)[C@@H]1CN(C2=O)[C@@H](C)CC[C@]12CC(OC)=NO2 [Example 101, (((3′S,5S,7′R)-10′-((2,4-difluorobenzyl)carbamoyl)-3-methoxy-3′-methyl-1′,11′-dioxo-1′,4′,5′,11′-tetrahydro-3′H,4H,7′H-spiro[isoxazole-5,6′-[2,7]methanopyrido[1,2-a][1,4]diazonin]-12′-yl)oxy)methyl dodecanoate] | 5.79 | ≥ 50000 | 
15 | COCCOCCOC(=O)Oc1c2n(cc(C(=O)NCc3ccc(F)cc3F)c1=O)[C@@H]1CN(C2=O)[C@@H](C)CC[C@]12CC(OC)=NO2 [Example 2, (3′S,5S,7′R)-1O′-((2,4-difluorobenzyl)carbamoyl)-3-methoxy-3′-methyl-1′,11′-dioxo-1′,4′,5′,11′-tetrahydro-3′H,4H,7′H-spiro[isoxazole-5,6′-[2,7]methanopyrido[1,2-a][1,4]diazonin]-12′-yl (2-(2-methoxyethoxy)ethyl) carbonate] |  | 11500 | 0.79
16 | CCCCCCCCCC(=O)Oc1c2n(cc(C(=O)NCc3ccc(F)cc3F)c1=O)[C@@H]1CN(C2=O)[C@@H](C)CC[C@]12CC(OC)=NO2 [Example 44, (3′S,5S,7′R)-10′-((2,4-difluorobenzyl)carbamoyl)-3-methoxy-3′-methyl-1′,11′-dioxo-1′,4′,5′,11′-tetrahydro-3′H,4H,7′H-spiro[isoxazole-5,6′-[2,7]methanopyrido[1,2-a][1,4]diazonin]-12′-yl decanoate] | 0.477 | 24500 | 
17 | CCCCCCCC(=O)OCOc1c2n(cc(C(=O)NCc3ccc(F)cc3F)c1=O)[C@@H]1CN(C2=O)[C@@H](C)CC[C@]12CC(OC)=NO2 [Example 95, (((3′S,5S,7′R)-10′-((2,4-difluorobenzyl)carbamoyl)-3-methoxy-3′-methyl-1′,11′-dioxo-1′,4′,5′,11′-tetrahydro-3′H,4H,7′H-spiro[isoxazole-5,6′-[2,7]methanopyrido[1,2-a][1,4]diazonin]-12′-yl)oxy)methyl octanoate] | 0.998 | ≥ 50000 | 
18 | CC1=NO[C@@]2(CC[C@H](C)N3C[C@H]2n2cc(C(=O)NCc4ccc(F)cc4F)c(=O)c(OC(=O)C4CCCC4)c2C3=O)C1 [Example 53, (3′S,5S,7′R)-10′-((2,4-difluorobenzyl)carbamoyl)-3,3′-dimethyl-1′,11′-dioxo-1′,4′,5′,11′-tetrahydro-3′H,4H,7′H-spiro[isoxazole-5,6′-[2,7]methanopyrido[1,2-a][1,4]diazonin]-12′-yl cyclopentanecarboxylate] | 1.44 | 24400 | 
19 | CCCCCCCCCCCCCCCCCC(=O)Oc1c2n(cc(C(=O)NCc3ccc(F)cc3F)c1=O)[C@@H]1CN(C2=O)[C@@H](C)CC[C@]12CC(OC)=NO2 [Example 6, (3′S,5S,7′R)-10′-((2,4-difluorobenzyl)carbamoyl)-3-methoxy-3′-methyl-1′,11′-dioxo-1′,4′,5′,11′-tetrahydro-3′H,4H,7′H-spiro[isoxazole-5,6′-[2,7]methanopyrido[1,2-a][1,4]diazonin]-12′-yl stearate] | 9.48 | ≥ 50000 | 
